According to patent publication US20250145665A1, “MACROCYCLIC PEPTIDES USEFUL AS MODULATORS OF TNF ALPHA” (Bristol-Myers Squibb Company, priority 2023, published 2025):
pIC50: −log10 of the molar value. Where two headings read alike, the source gives them in different places. Starred links: 1 amine or outer side, 2 acyl side, 3 side chain; linkers in the order of their positions; H or OH if unused. Positions of bridges follow the written chain, without caps; N, C: chain ends. Non-standard residues stand in square brackets, D forms with d. Residues, ends and D or L forms follow the SMILES beside them. ξ: configuration not given here. *: point of attachment. Bip(4'-NHCO-C6H4-4-CH2COOH) = N[C@@H](Cc1ccc(-c2ccc(NC(=O)c3ccc(CC(=O)O)cc3)cc2)cc1)C(=O)O; Bip(4'-NH) = O=C([C@H](Cc1ccc(-c2ccc(N[*:3])cc2)cc1)N[*:1])[*:2]; Bip(4'-CONHMe) = CNC(=O)c1ccc(-c2ccc(C[C@H](N)C(=O)O)cc2)cc1; Indazole3carbonyl(1-CH2COOH) = O=C(O)Cn1nc(C(=O)*)c2ccccc21; Bip(4'-COOH) = N[C@@H](Cc1ccc(-c2ccc(C(=O)O)cc2)cc1)C(=O)O; Bip(4'-NHAc) = CC(=O)Nc1ccc(-c2ccc(C[C@H](N)C(=O)O)cc2)cc1; X1 = N=C(NCCC[C@@H](N[*:1])C(=O)[*:2])NCCc1ccc2ccccc2c1; X11 = CC(=O)N[C@@H](Cc1cn(CC(=O)O)c2ccccc12)C(=O)*; Ala(imidazol-2-yl) = N[C@@H](Cc1ncc[nH]1)C(=O)O; dArg(ω-Bn) = N=C(NCCC[C@@H](N)C(=O)O)NCc1ccccc1; Ala(morpholin-4-yl) = N[C@@H](CN1CCOCC1)C(=O)O; Benzoyl(4-OCH2COOH) = O=C(O)COc1ccc(C(=O)*)cc1; Phe(3-CONH2) = NC(=O)c1cccc(C[C@H](N)C(=O)O)c1; Bip = N[C@@H](Cc1ccc(-c2ccccc2)cc1)C(=O)O; X60 = O=C(c1ccc2c(c1)CCc1ccccc1-2)*; 2Pal = N[C@@H](Cc1ccccn1)C(=O)O; 2Thi = N[C@@H](Cc1cccs1)C(=O)O; Cha = N[C@@H](CC1CCCCC1)C(=O)O; Chg = N[C@H](C(=O)O)C1CCCCC1; Tle = CC(C)(C)[C@H](N)C(=O)O; ξP = O=C(O)C1CCCN1; Sar = CNCC(=O)O

Target: TNFα (Homo sapiens, UniProt P01375)
Test: TNF-Induced HEK-Blue Assay
Assay type: cell-based
[1] = HEK-Blue-CD40L cells, NF-kB-driven secreted alkaline phosphatase reporter, TNFα 0.5 ng/ml, 18 h, read-out: TNF induced HEK-Blue assay IC50 value

TNFα, sequence (P01375 77-233 limits assumed): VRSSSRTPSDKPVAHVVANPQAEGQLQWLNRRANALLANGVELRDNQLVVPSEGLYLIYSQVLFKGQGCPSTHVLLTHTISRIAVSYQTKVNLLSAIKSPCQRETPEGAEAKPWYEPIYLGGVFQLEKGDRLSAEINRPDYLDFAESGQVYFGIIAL

| Structure (SMILES) | pIC50 [1] | pIC50 |
| --- | --- | --- |
| CC[C@H](C)[C@@H]1NC(=O)[C@@H](CCCNC(=N)N)NC(=O)[C@H](CC(=O)O)NC(=O)[C@H](Cc2cnc[nH]2)NC(=O)CN(C)C(=O)[C@H](Cc2ccc(-c3ccc(NC(=O)c4ccc(CC(=O)O)cc4)cc3)cc2)NC(=O)[C@H](Cc2ccc(-c3ccc(C(=O)NC)cc3)cc2)NC(=O)[C@H](CC2CCCCC2)NC(=O)CSC[C@@H](C(=O)NCC(N)=O)NC(=O)[C@H](CC(C)C)NC(=O)[C@H](Cc2cnc[nH]2)NC(=O)[C@H](C(C)C)NC(=O)[C@@H]2CCCN2C1=O [Example 528] ({CH2CO}-[Cha][Bip(4'-CONHMe)][Bip(4'-NHCO-C6H4-4-CH2COOH)][Sar]HD[dR]IPVHLCG-NH2; thioether N-13) | > 7.30 | – |
| CC[C@H](C)[C@@H]1NC(=O)C2CCCN2C(=O)[C@H]([C@@H](C)CC)NC(=O)[C@@H](CCCNC(=N)N)NC(=O)[C@H](CC(=O)O)NC(=O)[C@H](Cc2ccccc2)NC(=O)CN(C)C(=O)[C@H](Cc2ccc(-c3ccc(NC(=O)c4ccc5c(c4)CCc4ccccc4-5)cc3)cc2)NC(=O)[C@H](Cc2ccc(-c3ccc(C(=O)O)cc3)cc2)NC(=O)[C@H](C(C)(C)C)NC(=O)CSC[C@@H](C(=O)NCC(N)=O)NC(=O)[C@H](CC(C)C)NC(=O)[C@H](Cc2ncc[nH]2)NC1=O (stereo partly shown) [Example 419] ({CH2CO}-[Tle][Bip(4'-COOH)][Bip(4'-NH)](X60)[Sar]FD[dR]I[ξP]I[Ala(imidazol-2-yl)]LCG-NH2; thioether N-13) | 5.70 to 6.70 | – |
| CC(C)C[C@@H]1NC(=O)[C@H](CCCNC(=N)N)NC(=O)[C@H](C(C)C)NC(=O)[C@@H]2CCCN2C(=O)[C@H](C(C)C)NC(=O)[C@@H](CCCNC(=N)NCCc2ccc3ccccc3c2)NC(=O)[C@H](CC(=O)O)NC(=O)[C@@H]2CCCN2C(=O)CN(C)C(=O)[C@H](Cc2ccc(-c3ccc(NC(=O)c4nn(CC(=O)O)c5ccccc45)cc3)cc2)NC(=O)[C@H](Cc2ccc(-c3ccccc3)cc2)NC(=O)[C@H](CN2CCOCC2)NC(=O)CSC[C@@H](C(=O)NCC(N)=O)NC1=O [Example 433] ({CH2CO}-[Ala(morpholin-4-yl)][Bip][Bip(4'-NH)](Indazole3carbonyl(1-CH2COOH))[Sar]PD[X1]VPVRLCG-NH2; thioether N-13) | – | 6.70 to 7.30 |
| CC(C)C[C@@H]1NC(=O)[C@H](Cc2cccs2)NC(=O)[C@H](C(C)C)NC(=O)[C@@H]2CCCN2C(=O)[C@H](C(C)C)NC(=O)[C@@H](CCCNC(=N)NCc2ccccc2)NC(=O)[C@H](CC(=O)O)NC(=O)[C@H](Cc2ccccn2)NC(=O)CN(C)C(=O)[C@H](Cc2ccc(-c3ccc(NC(=O)c4nn(CC(=O)O)c5ccccc45)cc3)cc2)NC(=O)[C@H](Cc2ccc(-c3ccccc3)cc2)NC(=O)[C@H](CN2CCOCC2)NC(=O)CSC[C@@H](C(=O)NCC(N)=O)NC1=O [Example 638] ({CH2CO}-[Ala(morpholin-4-yl)][Bip][Bip(4'-NH)](Indazole3carbonyl(1-CH2COOH))[Sar][2Pal]D[dArg(ω-Bn)]VPV[2Thi]LCG-NH2; thioether N-13) | – | > 7.30 |
| CC[C@H](C)[C@@H]1NC(=O)[C@@H]2CCCN2C(=O)[C@H]([C@@H](C)CC)NC(=O)[C@@H](CCCNC(=N)N)NC(=O)[C@H](CC(=O)O)NC(=O)[C@H](Cc2ccccn2)NC(=O)CN(C)C(=O)[C@H](Cc2ccc(-c3ccc(NC(=O)[C@H](Cc4cn(CC(=O)O)c5ccccc45)NC(C)=O)cc3)cc2)NC(=O)[C@H](Cc2ccc(-c3ccccc3)cc2)NC(=O)[C@H](C(C)(C)C)NC(=O)CSC[C@@H](C(=O)NCC(N)=O)NC(=O)[C@H](CC(C)C)NC(=O)[C@H](Cc2cccc(C(N)=O)c2)NC1=O [Example 379] ({CH2CO}-[Tle][Bip][Bip(4'-NH)](X11)[Sar][2Pal]D[dR]IPI[Phe(3-CONH2)]LCG-NH2; thioether N-13) | 6.70 to 7.30 | – |

The next lines start with results.

| pIC50 [1] | Structure (SMILES) | pIC50 |
| --- | --- | --- |
| > 7.30 | CC(C)C[C@@H]1NC(=O)[C@H](Cc2cnc[nH]2)NC(=O)[C@H](C(C)C)NC(=O)[C@@H]2CCCN2C(=O)[C@H](C(C)C)NC(=O)[C@@H](CCCNC(=N)N)NC(=O)[C@H](CC(=O)O)NC(=O)[C@H](Cc2ccccc2)NC(=O)CN(C)C(=O)[C@H](Cc2ccc(-c3ccc(NC(=O)c4ccc(OCC(=O)O)cc4)cc3)cc2)NC(=O)[C@H](Cc2ccc(-c3ccccc3)cc2)NC(=O)[C@H](CN2CCOCC2)NC(=O)CSC[C@@H](C(=O)NCC(N)=O)NC1=O [Example 492] ({CH2CO}-[Ala(morpholin-4-yl)][Bip][Bip(4'-NH)](Benzoyl(4-OCH2COOH))[Sar]FD[dR]VPVHLCG-NH2; thioether N-13) | – |
| 6.70 to 7.30 | CC(=O)Nc1ccc(-c2ccc(C[C@@H]3NC(=O)[C@H](Cc4ccc(-c5ccccc5)cc4)NC(=O)[C@H](CN4CCOCC4)NC(=O)CSC[C@@H](C(=O)NCC(N)=O)NC(=O)[C@H](CC(C)C)NC(=O)[C@H](CCCNC(=N)N)NC(=O)[C@H](C4CCCCC4)NC(=O)[C@@H]4CCCN4C(=O)[C@H](CC(N)=O)NC(=O)[C@@H](CCCNC(=N)N)NC(=O)[C@H](CC(=O)O)NC(=O)[C@H](Cc4ccccn4)NC(=O)CN(C)C3=O)cc2)cc1 [Example 218] ({CH2CO}-[Ala(morpholin-4-yl)][Bip][Bip(4'-NHAc)][Sar][2Pal]D[dR]NP[Chg]RLCG-NH2; thioether N-13) | – |
